Target: T1, PDGF-receptor beta enzyme comprising the tyrosine kinase domain (Homo sapiens, UniProt P09619)
T1 construct: from amino acid 545 to 1106 of GenBank Access NO: AAA36427
Assay: Inhibition of PDGF-receptor kinase activity (cell-free, PLC1 peptide, 33P Flashplate)
Type: biochemical
Details: PDGF-R kinase activity; for inhibition at 10 µM: compound at 10 uM, read-out: Percent Inhibition @ 10 uM; for IC50: read-out: IC50
How it was run: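 The IC50 is the inhibitor level halving kinase activity relative to inhibitor-free wells, measured as 33P captured on a streptavidin-bound biotin-PLC1 peptide. The reaction ran 60 min at 30 °C in pH 8 Tris buffer with 1 mM DTT, 5 μM ATP and the 545–1106 kinase-domain enzyme.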

T1 sequence (P09619 545-1106): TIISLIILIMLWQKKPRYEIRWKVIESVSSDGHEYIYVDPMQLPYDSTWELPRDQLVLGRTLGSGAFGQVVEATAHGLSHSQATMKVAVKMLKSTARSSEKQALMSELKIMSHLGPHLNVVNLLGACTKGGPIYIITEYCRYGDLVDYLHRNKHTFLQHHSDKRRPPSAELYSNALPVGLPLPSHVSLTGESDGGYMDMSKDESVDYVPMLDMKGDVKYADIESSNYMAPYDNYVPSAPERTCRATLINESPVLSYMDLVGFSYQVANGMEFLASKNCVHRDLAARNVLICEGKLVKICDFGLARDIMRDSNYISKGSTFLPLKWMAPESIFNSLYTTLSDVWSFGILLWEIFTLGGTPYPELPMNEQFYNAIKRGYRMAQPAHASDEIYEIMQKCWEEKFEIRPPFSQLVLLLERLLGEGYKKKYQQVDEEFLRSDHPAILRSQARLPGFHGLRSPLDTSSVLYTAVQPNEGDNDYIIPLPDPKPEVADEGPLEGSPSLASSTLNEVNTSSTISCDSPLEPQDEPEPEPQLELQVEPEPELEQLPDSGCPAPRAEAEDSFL

`CCOc1cc2c(cc1OCC)-c1n[nH]c(Nc3cccc(OC)c3)c1C2` [Compound 245, (6,7-Diethoxy-2,4-dihydro-indeno[1,2-c]pyrazol-3-yl)-(3-methoxy-phenyl)-amine] showed an inhibition at 10 µM of 87% and an IC50 of 1 nM.
Work on `CCOc1cc2c(cc1OCC)-c1n[nH]c(Nc3ccc(F)c(Cl)c3)c1C2` [Compound 246, (3-Chloro-4-fluoro-phenyl)-(6,7-dioethoxy-2,4-dihydro-indeno[1,2-c]pyrazol-3-yl)-amine] yielded an inhibition at 10 µM of 77% and an IC50 of 12.1 nM.
`COc1cc2c(cc1OC)C(C)c1c-2n[nH]c1Nc1ccc(F)cc1` (stereo not drawn) [Compound 248, (6,7-Dimethoxy-4-methyl-2,4-dihydro-indeno[1,2-c]pyrazol-3-yl)-(4-fluoro-phenyl)-amine] gave an inhibition at 10 µM of 68% and an IC50 of 410 nM.
Compound `COc1cc2c(cc1OC)C(C)c1c-2n[nH]c1Nc1ccc(F)c(Cl)c1` (stereo not drawn) [Compound 250, (3-Chloro-4-fluoro-phenyl)-(6,7-dimethoxy-4-methyl-2,4-dihydro-indeno[1,2-c]pyrazol-3-yl)-amine] has an inhibition at 10 µM of 88% and an IC50 of 223 nM.
For `COc1cc2c(cc1OC)C(C)c1c-2n[nH]c1Nc1cc(F)cc(F)c1` (stereo not drawn) [Compound 251, (3,5-Difluoro-phenyl)-(6,7-dimethoxy-4-methyl-2,4-dihydro-indeno[1,2-c]pyrazol-3-yl)-amine], the inhibition at 10 µM was 84% and the IC50 was 322 nM.
`COc1cc2c(cc1OC)C(C)c1c-2n[nH]c1Nc1cc(F)ccc1F` (stereo not drawn) [Compound 252, (2,5-Difluoro-phenyl)-(6,7-dimethoxy-4-methyl-2,4-dihydro-indeno[1,2-c]pyrazol-3-yl)-amine] was tested, and the inhibition at 10 µM was 16%.
`COc1cc2c(cc1OC)C(C)c1c-2n[nH]c1Nc1cccc(OCc2ccccc2)c1` (stereo not drawn) [Compound 254, (3-Benzyloxy-phenyl)-(6,7-dimethoxy-4-methyl-2,4-dihydro-indeno[1,2-c]pyrazol-3-yl)-amine] gave an inhibition at 10 µM of 89% and an IC50 of 181 nM.
Compound `COc1cc2c(cc1OC)C(C)c1c-2n[nH]c1Nc1cccc(SC)c1` (stereo not drawn) [Compound 255, (6,7-Dimethoxy-4-methyl-2,4-dihydro-indeno[1,2-c]pyrazol-3-yl)-(3-methylsulfanyl-phenyl)-amine] has an inhibition at 10 µM of 90% and an IC50 of 162 nM.
With `COc1cc2c(cc1OC)C(C)c1c-2n[nH]c1Nc1cccc(Cl)c1` (stereo not drawn) [Compound 257, (3-Chloro-phenyl)-(6,7-dimethoxy-4-methyl-2,4-dihydro-indeno[1,2-c]pyrazol-3-yl)-amine] the inhibition at 10 µM was 35%.
Compound `COc1ccc(OC)c(Nc2[nH]nc3c2C(C)c2cc(OC)c(OC)cc2-3)c1` (stereo not drawn) [Compound 258, (6,7-Dimethoxy-4-methyl-2,4-dihydro-indeno[1,2-c]pyrazol-3-yl)-(2,5-dimethoxy-phenyl)-amine] has an inhibition at 10 µM of 39%.
Work on `COc1cc2c(cc1OCC(O)CO)Cc1c-2n[nH]c1Nc1cccc(Cl)c1` (stereo not drawn) [Compound 259] yielded an inhibition at 10 µM of 93% and an IC50 of 2.04 nM.
Work on `CCOc1cc2c(cc1OCC)-c1n[nH]c(NCc3ccccc3)c1C2` [Compound 264, Benzyl-(6,7-diethoxy-2,4-dihydro-indeno[1,2-c]pyrazol-3-yl)-amine] yielded an inhibition at 10 µM of 86% and an IC50 of 85.2 nM.
Work on `COc1cc2c(cc1OC)-c1n[nH]c(NCc3cc(Cl)cc(Cl)c3)c1C2` [Compound 271, (3,5-Dichloro-benzyl)-(6,7-dimethoxy-2,4-dihydro-indeno[1,2-c]pyrazol-3-yl)-amine] yielded an inhibition at 10 µM of 54.5% and an IC50 of 6990 nM.
For `COc1cc2c(cc1OC)-c1n[nH]c(NCc3cccc(C)c3)c1C2` [Compound 272, (6,7-Dimethoxy-2,4-dihydro-indeno[1,2-c]pyrazol-3-yl)-(3-methyl-benzyl)-amine], the inhibition at 10 µM was 61% and the IC50 was 389 nM.
`COc1cc2c(cc1OC)-c1n[nH]c(NCc3ccc(C)c(Cl)c3)c1C2` [Compound 273, (3-Chloro-4-methyl-benzyl)-(6,7-dimethoxy-2,4-dihydro-indeno[1,2-c]pyrazol-3-yl)-amine] was tested, and the inhibition at 10 µM was 77% and the IC50 was 1580 nM.

Reference: patent US7196110B2, “N-substituted tricyclic 3-aminopyrazoles as inhibitors for the treatment of cell proliferative disorders” (Janssen Phamaceutica N.V., priority 2002, dated 2007)
